The values below come from patent EP0492902A1, “Substituted pyridine derivatives for use in the treatment of glaucoma” (MERCK SHARP & DOHME LTD., priority 1990, dated 1992).

This assay in a line: Change in intraocular pressure (IOP) after administration of compound. The class given is in vivo.

The structures appear in SMILES notation. Structures can show the parent of a compound that is named as a salt.

Consider `CCOc1cccc(C2CN3CCC2CC3)n1` (stereo not shown) [Description A, 3-[2-(6-Ethoxypyridin)yl]-1-azabicyclo[2.2.2]octane Hydrogen Oxalate], for which the “Change in IOP (Maximum mmHg change in intraocular pressure)” value (Concentration 0.05%) is listed as -3.0 mmHg.
The same measure, in the same setting: with `COc1cccc(C2CN3CCC2C3)n1` (stereo not drawn) [Description B, Endo-3-[2-(6-methoxypyridin)yl]-1-azabicyclo[2.2.1]heptane Hydrogen Oxalate] the figure was -4.5 mmHg; with `COc1cccc(C2CN3CCC2CC3)n1` (stereo not shown) [Description C, 3-[2-6-Methoxypyridin)yl]-1-azabicyclo[2.2.2]octane Dihydrochloride], -3.0 mmHg.
With `Clc1cccc(C2CN3CCC2CC3)n1` (stereo not shown) [Description D, 3-[2-(6-Chloropyridin)yl]-1-azabicyclo[2.2.2]octane Hydrogen Oxalate], the “Change in IOP (Maximum mmHg change in intraocular pressure)” value (Concentration 0.5%) is listed as -3.0 mmHg.
